Source: patent US5366726A (priority 1992, dated 1994)

Assays:
[1] = test system: Pneumocystis carinii; assay: Example 8: randomized clinical trial, prevention of PCP; format: in vivo, human
[2] = test system: Pneumocystis carinii; assay: Example 6: prevention of PCP, different dosages and regimens; format: in vivo, human; conditions: of 372, at least one treatment
Description: A total of 438 participants were selected on the basis of seropositivity for HIV, and were stratified on the basis of (i) prior PCP (n=250), (ii) Kaposi's sarcoma (n=59) or (iii) ARC (n=129).

[3] = Example 2: pentamidine in BAL supernatant, BAL sediment and serum (HPLC); format: in vivo, human
Description: The patients were divided into two groups.

[4] = parameters: species or system human; conditions: in vivo
Description: Within 30 days of initiation of prophylaxis, ten patients were omitted due to treatment (9) or relapse (1). Of the 93 patients, 48 had had at least one previous episode of PCP. Two-thirds of the patients were taking AZT at the onset and throughout the duration of the post-exposure prophylaxis. The median and maximum duration of treatment at the time of analysis was 3.1 and 5.2 months.

[5] = human, in vivo
[6] = Respirgard or UltraVent, any dose or duration
[7] = parameters: species or system human; conditions: in vivo; remark: listed apart in the source
Description: Five patients who developed PCP within 28 days were not evaluated. One hundred (66%) of the patients were concurrently receiving AZT, and 42 (28%) had experienced one prior episode of PCP.

[8] = all strata, eligible, PCP within 60 days, 30 mg
[9] = all strata, eligible, confirmed PCP within 60 days, 30 mg
[10] = prior PCP strata, eligible, PCP within 60 days, 30 mg
[11] = prior PCP strata, eligible, PCP within 60 days, 150 mg
[12] = prior PCP strata, eligible, PCP within 60 days, 300 mg
[13] = prior PCP strata, eligible, confirmed PCP within 60 days, 30 mg
[14] = prior PCP strata, eligible, confirmed PCP within 60 days, 150 mg
[15] = prior PCP strata, eligible, confirmed PCP within 60 days, 300 mg

N=C(N)c1ccc(OCCCCCOc2ccc(C(=N)N)cc2)cc1 [pentamidine, p,p'-(pentamethylenedioxy)dibenzamidine]
effectiveness vs 300 mg ([1]; 150 mg arm, compared with 30 mg arm, not statistically significant vs 300 mg): consistently less effective than 300 mg
time to PCP occurrence, Kaplan-Meier ([1]; 150 mg vs 30 mg): superior to the 30 mg arm but less so than the 300 mg arm
PCP episodes vs other arms ([1]; 300 mg arm): fewest PCP episodes
time to PCP occurrence, Kaplan-Meier ([1]; 300 mg every 4 weeks vs 30 mg every 2 weeks): consistently superior
hazard of PCP, Cox model ([1]; 300 mg group): significantly lower hazard of PCP
PCP episodes documented during study ([1]; all arms): One hundred-one
PCP events not histologically confirmed ([1]; all arms): Twenty-five
completed the study without reaching a study endpoint ([1]; all arms): 26%
deaths due to PCP ([1]; all arms): Nineteen
p, log rank 30 mg vs. 300 mg ([1]; all strata, eligible, PCP within 60 days): .004
No PCP [1, 8]: 89
PCP [1, 8]: 28
PCP ([1]; all strata, eligible, PCP within 60 days, 150 mg): 18
PCP ([1]; all strata, eligible, PCP within 60 days, 300 mg): 16
p, log rank 30 mg vs. 300 mg ([1]; all strata, eligible, confirmed PCP within 60 days): .0008
No PCP [1, 9]: 95
PCP [1, 9]: 22
PCP ([1]; all strata, eligible, confirmed PCP within 60 days, 150 mg): 16
PCP ([1]; all strata, eligible, confirmed PCP within 60 days, 300 mg): 8
p, log rank 30 mg vs. 300 mg ([1]; all strata, intention to treat): .02
PCP ([1]; all strata, intention to treat, all PCP, 30 mg): 41
PCP ([1]; all strata, intention to treat, all PCP, 150 mg): 32
PCP ([1]; all strata, intention to treat, all PCP, 300 mg): 28
No PCP ([1]; all strata, intention to treat, 30 mg): 94
Cox relative hazard of 30 mg, on study drugs events ([1]; for 150 mg): 1.7
Cox relative hazard of 30 mg, on study drugs events ([1]; for 300 mg): 3.9
all cause mortality between three treatment arms ([1]; human, in vivo): did not significantly differ
participants who developed PCP ([1]; initial CD4 counts greater than 200, no prior PCP): 5.1%
participants who developed PCP ([1]; initial CD4 counts less than 200, no prior PCP): 13%
p, log rank 30 mg vs. 300 mg ([1]; prior PCP strata, eligible, PCP within 60 days): .006
No PCP [1, 10]: 42
PCP [1, 10]: 25
No PCP [1, 11]: 51
PCP [1, 11]: 16
No PCP [1, 12]: 60
PCP [1, 12]: 14
p, log rank 30 mg vs. 300 mg ([1]; prior PCP strata, eligible, confirmed PCP within 60 days): .002
No PCP [1, 13]: 47
PCP [1, 13]: 20
No PCP [1, 14]: 53
PCP [1, 14]: 14
No PCP [1, 15]: 66
PCP [1, 15]: 8
p, log rank 30 mg vs. 300 mg ([1]; prior PCP strata, intention to treat): .02
PCP ([1]; prior PCP strata, intention to treat, all PCP, 30 mg): 33
PCP ([1]; prior PCP strata, intention to treat, all PCP, 150 mg): 24
PCP ([1]; prior PCP strata, intention to treat, all PCP, 300 mg): 21
No PCP ([1]; prior PCP strata, intention to treat, 30 mg): 46
No PCP ([1]; prior PCP strata, intention to treat, 150 mg): 54
No PCP ([1]; prior PCP strata, intention to treat, 300 mg): 59
PCP episodes ([1]; prior PCP stratum, all arms): Seventy-eight
median time to PCP relapse ([1]; prophylaxis started within 3 months of prior episode): 240 days
hazard of PCP ([1]; therapy started within 3 months vs later): less than half the hazard of PCP
participants who experienced relapse [2]: 17
BAL sediment concentration, aerosol vs intravenous group ([3]; 18-24 h): 10-100 fold
mean BAL supernatant (aerosol) vs sediment (intravenous) concentration, factor ([3]; 18-24 h): more than 2
systemic absorption ([3]; after aerosol administration): Little or no systemic absorption
major pentamidine-related toxicity [4]: No major pentamidine-related toxicity
only frequent adverse effect observed clinically [5]: transient airway irritation
dose remaining in the nebulizer after inhalation [6]: approximately one third
prophylaxis discontinued due to bronchospasm, patients [7]: one
mild cough controlled by metaproterenol, patients (aerosol): 9 patients
severe coughing, patients (aerosol, all smokers): 3 patients
adverse systemic reactions (renal, liver, hematologic, hypoglycemia, hypotension) (in vivo): No adverse systemic reactions
air-way obstruction (in vivo): Neither clinical nor spirometric evidence of air-way obstruction occurred
clinical bronchospasm (in vivo): not seen
coughing with therapy, patients (in vivo): Twelve
Toxicity Req Change of Therapy (n = 15): 0(0) n (%)
